# Results as given in patent US12247029B2, “Heterocyclic compounds as class II phosphoinositide 3-kinase inhibitors” (Forschungsverbund Berlin e.V., priority 2018, dated 2025).
# Entries after “also recorded” stand apart in the source; their conditions may differ. Where two headings read alike, the source gives them in different places.
# How the values were obtained:
# [1] = test system: HeLa cells overexpressing SNX9 AS; assay: SNX9 AS membrane recruitment / tubulation; format: cell-based; conditions: eGFP-SNX9 AS OE HeLa cells, vs DMSO
# Description: (§1) FIG. 8. Inhibition of PI3KC2α in living cells upon treatment with C2a_inh1-3. (A) PI3KC2α inhibition impairs CCP dynamics analyzed by TIRF microscope. eGFP-clathrin expressing Cos7 cells were treated by DMSO or C2a_Inh3 for 1 h and imaged by TIRF microscope. […] (B) C2a_Inh3 treatment of eGFP-SNX9 AS OE HeLa cells. […] Scale bar, 10 μm or 2 μm (inset). (C) Quantification of the results depicted in B, indicating the percentage of cells containing membrane tubules (N=3, statistical analysis with one-way ANOVA, **** is for p<0.0001).
# SNX9 is a main effector protein of PI3KC2α dependent PI(3,4)P2 production. […] HeLa cells overexpressing SNX9 AS were treated with C2a_inh_3 or DMSO as a control.
# PI3KC2α Δ1-298 = PI3KC2α Δ1-298 (Homo sapiens (Human), UniProt O00443); assay: ADP-Glo kinase assay with purified PI3KC2α Δ1-298; format: biochemical
# Procedure, shortened: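 Purified human PI3KC2α Δ1-298 (10 ng/μl) with liver PI (200 μM) and ATP (40 μM), 20 min kinase reaction; ADP formed read by ADP-Glo luminescence after 40 min ATP depletion. Screening compounds at 10 μM; reactions lacking PI served as negative control.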
# [2] = test system: commercially available lipid kinases and the related mTOR protein kinase; assay: In vitro kinase profiling at fixed 10 μM (lipid kinase panel, mTOR, general kinase panel); format: biochemical; conditions: 10 μM compound; listed as C2a_Inh3
# Description: FIG. 7. In vitro kinase activity in presence of 10 μM compounds. (A-C) The specificity of initial screening hits and C2a_inh1-3 was validated by incubation with available lipid kinases. […] (D) Selectivity may be modulated by modifying the R11 substituent of Formula 1. […]
# We firstly analyzed the specificity of C2a_inh1 (dihydropteridinone derived compound) and other initial screening hits (eg. quinolone derived compound) in vitro. […]
# [3] = test system: eGFP-clathrin expressing Cos7 cells; assay: CCP dynamics by TIRF microscopy; format: cell-based; conditions: treatment for 1 h, vs DMSO
# Description: as §1
# To test if the validated compounds are cell membrane permeable and, thus, can be used as medicaments and in cell-based experiments, the inventors analyzed clathrin-mediated endocytosis of transferrin in the presence of PI3KC2α inhibitors or DMSO as a solvent control. […] Further, the inventors monitored the CCP dynamics in cells with PI3KC2α inhibitor (C2a_Inh3) treatment for 1 h.
# Chain of PI3KC2α Δ1-298 (O00443 299-1686): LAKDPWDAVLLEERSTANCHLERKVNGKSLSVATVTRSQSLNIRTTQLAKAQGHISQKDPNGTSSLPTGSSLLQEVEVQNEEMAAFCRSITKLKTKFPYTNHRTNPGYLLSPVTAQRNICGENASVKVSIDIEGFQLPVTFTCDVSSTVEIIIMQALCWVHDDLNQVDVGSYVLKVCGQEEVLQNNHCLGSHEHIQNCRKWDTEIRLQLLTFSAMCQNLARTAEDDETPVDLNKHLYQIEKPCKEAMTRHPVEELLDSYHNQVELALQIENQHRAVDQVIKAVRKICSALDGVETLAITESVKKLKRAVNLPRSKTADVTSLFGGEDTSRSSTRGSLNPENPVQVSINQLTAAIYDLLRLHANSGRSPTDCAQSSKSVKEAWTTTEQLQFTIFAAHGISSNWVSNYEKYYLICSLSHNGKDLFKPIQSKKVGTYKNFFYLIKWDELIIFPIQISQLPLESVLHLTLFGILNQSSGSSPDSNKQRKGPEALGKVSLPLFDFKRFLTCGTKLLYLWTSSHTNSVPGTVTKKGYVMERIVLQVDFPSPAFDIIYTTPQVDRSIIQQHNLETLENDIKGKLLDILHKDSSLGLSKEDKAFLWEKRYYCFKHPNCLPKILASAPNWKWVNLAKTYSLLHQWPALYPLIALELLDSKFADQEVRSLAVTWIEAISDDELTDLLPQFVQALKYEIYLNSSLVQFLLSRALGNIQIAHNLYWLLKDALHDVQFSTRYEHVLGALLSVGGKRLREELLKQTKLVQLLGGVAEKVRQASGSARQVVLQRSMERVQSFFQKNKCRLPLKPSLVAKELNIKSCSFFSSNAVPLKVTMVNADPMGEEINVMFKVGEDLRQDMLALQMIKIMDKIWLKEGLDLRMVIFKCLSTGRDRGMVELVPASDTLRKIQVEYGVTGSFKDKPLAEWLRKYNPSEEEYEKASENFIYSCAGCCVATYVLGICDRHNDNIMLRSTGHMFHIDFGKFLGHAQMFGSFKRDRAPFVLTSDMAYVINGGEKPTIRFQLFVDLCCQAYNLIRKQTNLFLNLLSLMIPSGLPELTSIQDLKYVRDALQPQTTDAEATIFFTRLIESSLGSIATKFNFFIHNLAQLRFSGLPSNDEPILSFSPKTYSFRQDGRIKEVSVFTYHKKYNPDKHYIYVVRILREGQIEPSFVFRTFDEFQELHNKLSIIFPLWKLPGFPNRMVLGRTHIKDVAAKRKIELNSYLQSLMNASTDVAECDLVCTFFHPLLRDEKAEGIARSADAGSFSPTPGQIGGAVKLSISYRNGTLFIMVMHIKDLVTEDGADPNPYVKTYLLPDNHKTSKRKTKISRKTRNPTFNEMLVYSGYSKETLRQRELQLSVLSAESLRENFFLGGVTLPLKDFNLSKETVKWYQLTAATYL
smiles,measurement,setting,value
"O=C(CSc1nc2nccnc2c(=O)n1CCc1ccccc1)Nc1nccs1 [Example Compound 11, 2-((4-Oxo-3-phenethyl-3,4-dihydropteridin-2-yl)thio)-N-(thiazol-2-yl)acetamide]",SNX9 AS recruitment to membrane / membrane tubules,[1]; listed as C2a_Inh3,reduced the recruitment of SNX9 to the membrane
same,SNX9 AS recruitment to membrane / membrane tubules,[1]; listed as C2a_inh_3,remained largely cytosolic
same,IC50,"PI3KC2α Δ1-298; listed as C2a_Inh3, read-out: IC50 for PI3KC2α inhibition",100 nM
same,IC50,PI3KC2α Δ1-298; read-out: IC50 (PI3KC2α; ADP-Glo™ assay),100 nM
same,specificity in kinase panel,[2],specifically inhibited class II PI3Ks; also recorded: relatively high off-targeting activity towards other class II kinase isoforms
same,CCP lifetime (CCP dynamics),[3]; listed as C2a_Inh3,increased CCP-lifetimes
same,CCP lifetime (CCP dynamics),[3]; listed as C2a_Inh_3,increase of lifetime
